Source: patent US20100204114A1, “USE OF A GALANIN PEPTIDE AS A THERAPEUTIC AGENT” (priority 2007, published 2010)
Where no end group is shown, it is not given here.

Key:
HCMV strain AD169 = experiment: HCMV plaque formation assay in MRC-5 cells; settings: for inhibition of HCMV plaque formation as compared to the virus control: 10 micrograms per ml, 7-10 days
HIV-1IIIB = experiment: HIV-1 antiviral assay in CEM-SS cells (MTS readout); format: cell-based
HUVEC = experiment: Endothelial tube formation assay; format: cell-based, human; settings: 10 micrograms per ml, 20 hours
[1] = tested on: hepatitis B virus (HBV) ayw strain in HepG2-2.2.15 cells; experiment: HBV experimental assay system, secreted HBV DNA by TaqMan PCR; format: cell-based; settings: 10 micrograms per ml, six days
Excerpt: HepG2-2.2.15 is a stable cell line containing the hepatitis B virus (HBV) ayw strain genome (ATCC Cat. No. CRL-11997). Antiviral compounds blocking any late step of viral replication such as transcription, translation, pregenome encapsidation, reverse transcription, particle assembly and release can be identified and characterized using this cell line. In this assay, an active compound will reduce the production of secreted HBV from cells, measured by utilizing real time quantitative PCR (TaqMan) assay to directly and accurately measure HBV DNA copies.
HepG2-2.2.15 cells were plated in 96-well microtiter plates. After 16-24 hours the confluent monolayer of HepG2-2.2.15 cells was washed and the medium was replaced with complete medium containing test peptides—10 micrograms per ml—in duplicate. […] Six days following the initial administration of the peptides, the cell culture supernatants was collected, treated with pronase and DNAse and then used in a real-time quantitative TaqMan PCR assay. The PCR-amplified HBV DNA was detected in real-time by monitoring increases in fluorescence signals that result from the exonucleolytic degradation of a quenched fluorescence probe molecule that hybridizes to the amplified HBV DNA. […] Antiviral activity was calculated from the reduction in HBV DNA levels (% virus control). […]

[2] = tested on: Primary Human endothelial cells (HUVEC); experiment: Endothelial cell migration assay; format: cell-based; settings: 10 micrograms per ml, 22 hours
[3] = tested on: spleen cells of Ovalbumin-immunized Balb/c mice; experiment: Th1/Th2 cytokine profiling assay (Ovalbumin-restimulated spleen cells, CBA kit); format: cell-based, mouse; settings: 10 micrograms per ml; Ovalbumin restimulation; 72 hours
Excerpt: The Balb/c mice (originated in 1923, it is a popular strain and is used in many different research disciplines. […] On day 50, spleens of the mice were harvested (3 weeks after last boost with Ovalbumin). […] This kit can be used to measure Interleukin-2 (IL-2), Interleukin-4 (IL-4), Interleukin-5 (IL-5), Interferon-γ (IFN-γ), and Tumor Necrosis Factor-α (TNF-α) protein levels in a single sample. The kit performance has been optimized for analysis of physiologically relevant concentrations ([…] levels) of specific cytokine proteins in tissue culture supernatants and serum samples.

Compound	antiviral activity of positive control compound (HCMV) (HCMV strain AD169; positive control)	antiviral activity of positive control compounds (HIV-1) (HIV-1IIIB)	inhibition of HCMV plaque formation as compared to the virus control (HCMV strain AD169)	inhibition of the tube formation of endothelial cells (HUVEC)	inhibition of HBV replication as compared to the virus control infection [1]	inhibition of the migration of human endothelial cells [2]	IFNγ spleen cells; TH1 response (% of control) [3]	IL-2 spleen cells (% of control) [3]	IL-4 spleen cells; TH2 response (% of control) [3]	IL-5 spleen cells; TH2 response (% of control) [3]	TNF-a spleen cells; TH1 response (% of control) [3]
Nc1nc(O)c2ncn(COC(CO)CO)c2n1 [Ganciclovir, reference compound]	expected levels of antiviral activity										
Cc1cn([C@H]2C[C@H](N=[N+]=[N-])[C@@H](CO)O2)c(=O)[nH]c1=O [AZT]		expected levels of antiviral activity									
CC(C)(C)NC(=O)[C@@H]1CN(Cc2cccnc2)CCN1C[C@@H](O)C[C@@H](Cc1ccccc1)C(=O)N[C@H]1c2ccccc2C[C@H]1O [indinavir]		expected levels of antiviral activity									
Ile-Tyr-Leu-Gly-Gly-Pro-Phe-Ser-Pro-Asn-Val-Leu-OH (IYLGGPFSPNVL-OH) [peptide 2]			did not inhibit	29%	34.1%	did not inhibit	102.8 % of control	150.7 % of control	182.0 % of control	73.5 % of control	114.1 % of control
Gly-Trp-Thr-Leu-Asn-Ser-Ala-Gly-Tyr-Leu-Leu-Gly-Pro-His-Ala-Val-Gly-Asn-His-Arg-Ser-Phe-Ser-Asp-Lys-Asn-Gly-Leu-Thr-Ser-OH [peptide 1]			did not inhibit	11%	no effect	29%	144.1 % of control	149.6 % of control	115.3 % of control	78.8 % of control	118.8 % of control
